Patent publication US8106047B2, “Triazolophthalazines” (NYCOMED GmbH, priority 2005, dated 2012)

Legend:
HUVEC monolayers = assay: Inhibition of macromolecule (HRP) permeability of thrombin-stimulated HUVEC monolayers; format: cell-based, human; conditions: Homo sapiens, 1 h; HUVEC on Transwells, 1 μM RP73401, 10 μM Motapizone, 1 mM SNP or 100 nM ANP, 1 U/ml thrombin, HRP passage after 60 min; read-out: Inhibition of SNP- or ANP-induced permeability, −log IC50 [mol/l] (converted)
Procedure: Method to Assess Inhibition of Macromolecule Permeability of HUVEC Monolayers
The procedure to measure macromolecule permeability of endothelial cell monolayers followed the method described by Langeler & van Hinsbergh (1988) with modifications. Human umbilical vein endothelial cells were isolated from umbilical cords according to standard procedures (Jaffe et al. 1973) and cultured in endothelial cell basal medium (EBM) supplemented with 2% FCS, 0.5 ng/ml VEGF, 10 ng/ml bFGF, 5 ng/ml EGF, 20 ng/ml Long R3 IGF-1, 0.2 μg/ml hydrocortisone, 1 μg/ml ascorbic acid, 22.5 μg/ml heparin, 50 μg/ml gentamicin, 50 ng/ml amphotericin B (EGM2 purchased from Promocell GmbH, Heidelberg, Germany). At confluency, cells were trypsinized and replated at 73000 cells per well on 3 μm polycarbonate filter Transwell inserts (Costar GmbH, Bodenheim, Germany) precoated with 10 μg cm^2−1 Fibronectin (Sigma, Taufkirchen, Germany). HUVECs were cultured in EGM2 (100 μl in the upper wells and 600 μl in the lower wells) over four days prior the experiments and medium was changed every other day. At the day of the experiment culture medium was replaced by M199 with 1% human serum albumin. Endothelial cells were preincubated with cyclic nucleotide modifiers (the selective PDE3 inhibitor motapizone, the selective PDE4 inhibitor RP73401, the cGMP generators ANP or SNP and PDE2 inhibitors) for 15 min. HUVECs were then stimulated with Thrombin (1 U ml^−1) (Sigma, Taufkichen, Germany) and horsh radish peroxidase (5 μg/ml) (Sigma, Taufkirchen, Germany) as the macromolecule marker protein was added to the upper wells. Following 1 h incubation time Transwells were removed and the activity of horsh radish peroxidase that penetrated the endothelial cell monolayer was measured in the lower wells with the 3,3′,5,5′-tetramethylbenzidine liquid substrate system from Sigma (Taufkirchen, Germany).
In parallel, compounds according to the invention can inhibit Thrombin-induced permeability of HUVEC monolayers for horsh radish peroxidase (HRP) as a macromolecule marker. […] The concentration-dependent inhibition of HRP permeability at different concentrations was assessed from the percent inhibition in the presence and absence of the PDE2 inhibitors and in the presence of 1 μM RP73401, 10 μM Motapizone and 100 nM ANP.
Inhibition of SNP- or ANP-Induced Permeability of HUVEC Monolayers:
HUVEC cells on 3 μm polycarbonate filters (Transwells) were preincubated with 1 μM RP73401 (to block PDE4) and 10 μM Motapizone (to block PDE3), 1 mM SNP or 100 nM ANP and test sample over 15 min and then stimulated with 1 U/ml thrombin. HRP passage into the lower wells was assessed after 60 min.

## COc1ccc(-c2nnc3c4ccccc4c(Nc4cccc(NS(=O)(=O)c5ccc(OC)cc5)c4)nn23)cc1 [Compound 10, 4-Methoxy-N-{3-[3-(4-methoxy-phenyl)-[1,2,4]triazolo[3,4-a]phthalazin-6-ylamino]-phenyl}-benzenesulfonamide]
HUVEC monolayers
  IC50: 0.501 to 126 nM
other
  melting point: 328 to 331 °C (dec.)

## COc1ccc(-c2nnc3c4ccccc4c(Nc4cccc(NS(=O)(=O)c5cccc(OC)c5)c4)nn23)cc1 [Compound 14, 3-Methoxy-N-{3-[3-(4-methoxy-phenyl)-[1,2,4]triazolo[3,4-a]phthalazin-6-ylamino]-phenyl}-benzenesulfonamide]
HUVEC monolayers
  IC50: 0.501 to 126 nM
other
  melting point: 328 to 332 °C

## COc1ccc(-c2nnc3c4ccccc4c(Nc4cccc(NS(=O)(=O)Cc5ccccc5)c4)nn23)cc1 [Compound 15, N-{3-[3-(4-Methoxy-phenyl)-[1,2,4]triazolo[3,4-a]phthalazin-6-ylamino]-phenyl}-1-phenyl-methanesulfonamide]
HUVEC monolayers
  IC50: 0.501 to 126 nM
other
  melting point: 289 to 292 °C

## COc1ccc(-c2nnc3c4ccccc4c(Nc4cccc(NS(=O)(=O)c5cccs5)c4)nn23)cc1 [Compound 17, Thiophene-2-sulfonic acid {3-[3-(4-methoxy-phenyl)-[1,2,4]triazolo[3,4-a]phthalazin-6-ylamino]-phenyl}-amide]
HUVEC monolayers
  IC50: 0.501 to 126 nM
other
  melting point: 327 to 331 °C

## COc1ccc(-c2nnc3c4ccccc4c(Nc4cccc(NS(C)(=O)=O)c4)nn23)cc1 [Compound 19, N-{3-[3-(4-Methoxyphenyl)-[1,2,4]triazolo[3,4-a]phthalazin-6-ylamino]-phenyl}-methanesulfonamide]
HUVEC monolayers
  IC50: 0.501 to 126 nM
other
  melting point: 304.9 °C

## COc1ccc(-c2nnc3c4ccccc4c(Nc4ccc(S(=O)(=O)Nc5ncccn5)cc4)nn23)cc1 [Compound 21, 4-[3-(4-Methoxyphenyl)-[1,2,4]triazolo[3,4-a]phthalazin-6-ylamino]-N-pyrimidin-2-yl-benzenesulfonamide]
HUVEC monolayers
  IC50: 0.501 to 126 nM
other
  melting point: > 350 °C

## COc1ccc(-c2nnc3c4ccccc4c(Nc4ccc(S(=O)(=O)N5CCOCC5)cc4)nn23)cc1 [Compound 22, [3-(4-Methoxyphenyl)-[1,2,4]triazolo[3,4-a]phthalazin-6-yl]-[4-(morpholine-4-sulfonyl)-phenyl]-amine]
HUVEC monolayers
  IC50: 0.501 to 126 nM
other
  melting point: 330 °C

## COc1ccc(-c2nnc3c4ccccc4c(Nc4cccc(S(=O)(=O)N5CCOCC5)c4)nn23)cc1 [Compound 25, [3-(4-Methoxyphenyl)-[1,2,4]triazolo[3,4-a]phthalazin-6-yl]-[3-(morpholine-4-sulfonyl)-phenyl]-amine]
HUVEC monolayers
  IC50: 0.501 to 126 nM
other
  melting point: 265.4 °C

## CN(C)c1ccccc1-c1nnc2c3ccccc3c(Nc3cccc(NS(=O)(=O)N(C)C)c3)nn12 [Compound 26]
HUVEC monolayers
  IC50: 0.501 to 126 nM
other
  melting point: 235 to 239 °C

## CN(C)S(=O)(=O)c1cccc(Nc2nn3c(-c4ccc(Br)cc4)nnc3c3ccccc23)c1 [Compound 28, [3-(N,N-dimethylsulfamoyl)-phenyl]-[3-(4-bromo-phenyl)-[1,2,4]triazolo[3,4-a]phthalazin-6-yl]-amine]
HUVEC monolayers
  IC50: 0.501 to 126 nM
other
  melting point: 290 to 293 °C

## COc1ccc(-c2nnc3c4ccccc4c(Nc4cccc(S(=O)(=O)N5CCCC5)c4)nn23)cc1 [Compound 29, [3-(4-Methoxy-phenyl)-[1,2,4]triazolo[3,4-a]phthalazin-6-yl]-[3-(pyrrolidine-1-sulfonyl)-phenyl]-amine]
HUVEC monolayers
  IC50: 0.501 to 126 nM
other
  melting point: 292 to 295 °C

## COc1ccc(-c2nnc3c4ccccc4c(Nc4cccc(S(=O)(=O)N5CCCCC5)c4)nn23)cc1 [Compound 30, [3-(4-Methoxy-phenyl)-[1,2,4]triazolo[3,4-a]phthalazin-6-yl]-[3-(piperidine-1-sulfonyl)-phenyl]-amine]
HUVEC monolayers
  IC50: 0.501 to 126 nM
other
  melting point: 275 to 280 °C

## CN(C)S(=O)(=O)Nc1cccc(Nc2nn3c(-c4ccccc4F)nnc3c3ccccc23)c1 [Compound 31]
HUVEC monolayers
  IC50: 0.501 to 126 nM
other
  melting point: 252 to 256 °C

## COc1ccccc1-c1nnc2c3ccccc3c(Nc3cccc(NS(=O)(=O)N(C)C)c3)nn12 [Compound 32]
HUVEC monolayers
  IC50: 0.501 to 126 nM
other
  melting point: 229 to 233 °C

## COc1ccc(-c2nnc3c4ccccc4c(Nc4cccc(NS(=O)(=O)N5CCOCC5)c4)nn23)cc1 [Compound 34, Morpholine-4-sulfonic acid {3-[3-(4-methoxy-phenyl)-[1,2,4]triazolo[3,4-a]phthalazin-6-ylamino]-phenyl}-amide]
HUVEC monolayers
  IC50: 0.501 to 126 nM
other
  melting point: 264 °C (dec.)
